According to BigSolDB 2.1:

NC(N)=C([N+](=O)[O-])[N+](=O)[O-]
solubility (mole fraction) (in DMF, 293.15 K): 0.0918 | solubility (mole fraction) (in DMF, 303.15 K): 0.102 | solubility (mole fraction) (in DMF, 313.15 K): 0.11 | solubility (mole fraction) (in DMF, 323.15 K): 0.119 | solubility (mole fraction) (in DMF, 333.15 K): 0.129 | solubility (mole fraction) (in DMF, 343.15 K): 0.137 | solubility (mole fraction) (in DMF, 353.15 K): 0.148 | solubility (mole fraction) (in DMF, 363.15 K): 0.162 | solubility (mole fraction) (in DMSO, 293.15 K): 0.183 | solubility (mole fraction) (in DMSO, 303.15 K): 0.191 | solubility (mole fraction) (in DMSO, 313.15 K): 0.199 | solubility (mole fraction) (in DMSO, 323.15 K): 0.207 | solubility (mole fraction) (in DMSO, 333.15 K): 0.217 | solubility (mole fraction) (in DMSO, 343.15 K): 0.229 | solubility (mole fraction) (in DMSO, 353.15 K): 0.242 | solubility (mole fraction) (in DMSO, 363.15 K): 0.254 | solubility (mole fraction) (in NMP, 293.15 K): 0.168 | solubility (mole fraction) (in NMP, 303.15 K): 0.178 | solubility (mole fraction) (in NMP, 313.15 K): 0.184 | solubility (mole fraction) (in NMP, 323.15 K): 0.194 | solubility (mole fraction) (in NMP, 333.15 K): 0.203 | solubility (mole fraction) (in NMP, 343.15 K): 0.214 | solubility (mole fraction) (in NMP, 353.15 K): 0.227 | solubility (mole fraction) (in NMP, 363.15 K): 0.24
